Tested on: Sprague-Dawley rats
Experiment: Biomarkers in colon of TNBS-induced acute colitis rats (Example E1)
Assay type: in vivo, rat
Conditions: protein by ELISA, vs vehicle treated controls, Peptide 993 65 mg/kg/day; for IL-22 level in colon / MPO level in colon: Peptide 980 37 mg/kg/day
From the text: The effect of treatment with peptide inhibitors of IL23R on inflammatory markers associated with IL23 signaling was examined in a rat model of acute colitis. Acute colitis was induced in Sprague-Dawley rats by a single intra-rectal instillation of 2,4,6-Trinitrobenzenesulfonic acid (TNBS) followed by efficacy analysis at day seven. Pharmacodynamic (PD) biomarkers were examined using enzyme-linked immunosorbent assay (ELISA), quantitative reverse transcription polymerase chain reaction, or immunohistochemistry analysis of colon, feces, or serum samples obtained from colitic rats treated with Peptide 993, Peptide 1185, or Peptide 980.
Acute colitis was induced by providing 7-week-old female Sprague-Dawley rats with various dosages of 64 mg/kg or 48 mg/kg of TNBS in 50% ethanol (TNBS/ethanol) administered intrarectally at Day 0. Peptide inhibitors were administered orally two or three times a day at various dosages and were provided in drinking water at various dosages, for 8 days starting approximately 24 hours (Day −1) prior TNBS inoculation.
Levels of a number of inflammatory biomarkers were examined in the colons. The distal colon tissue samples, designated for protein expression analysis, were flash frozen after collection. For protein extraction, the samples were thawed, weighed and homogenized in the extraction buffer (PBS pH 7.2 supplemented with Protease Inhibitors, 3× volume:weight). The homogenates were centrifuged at 13 krpm at 4° C. for 15 minutes, a total of two times to remove the debris. The supernatants were saved in multiple aliquots in −80° C. and subsequently used for protein expression analysis on ELISA. The total protein in each sample was quantified using BCA assay. MPO, IL-10, IL-6, IL-17A and IL-22 biomarker protein expression in the distal colon samples was analyzed using commercially available rat ELISA kits.

Molecule | IL-17A level in colon | IL-22 level in colon | MPO level in colon
CC(=O)NCCCCC(NC(=O)C1(NC(=O)C(Cc2ccc3ccccc3c2)NC(=O)C(Cc2ccc(OCCN)cc2)NC(=O)C2NC(=O)C(CCC(N)=O)NC(=O)C(Cc3c[nH]c4ccccc34)NC(=O)C(C(C)O)NC(=O)C(CC(N)=O)NC(=O)C(NC(C)=O)C(C)(C)SSC2(C)C)CCOCC1)C(=O)NC(CC(N)=O)C(=O)NC(CC(N)=O)C(N)=O (centres unmarked) [Peptide 1185, Ac-cyclo[[Pen]-NTWQ-[Pen]]-[Phe[4-(2-aminoethoxy)]]-[2-Nal]-[4-amino-4-carboxy-tetrahydropyran]-[Lys(Ac)]-NN-NH2] | did not significantly reduce | did not significantly reduce | did not significantly reduce
Ac-cyclo[[Abu]-QTWQC]-[Phe[4-(2-aminoethoxy)]]-[2-Nal]-[4-amino-4-carboxy-tetrahydropyran]-ENN-NH2 [Peptide 980] |  | reduced | reduced
